Reference: article PMC6269778, “Efficient Synthesis of 2-Amino-6-Arylbenzothiazoles via Pd(0) Suzuki Cross Coupling Reactions: Potent Urease Enzyme Inhibition and Nitric Oxide Scavenging Activities of the Products” (Molecules, 2013)
In brackets after ≈: the same amount, converted by molar mass. Several values for one entry are separate records, joined by “and”; a condition that tells them apart may be missing. Equal values may be shown once.

Tests used:
[1] = NO scavenging activity (sodium nitroprusside / Griess reagent); details: for Nitric Oxide Percentage Scavenging Activity at 25 µg/mL / Nitric Oxide Percentage Scavenging Activity at 50 µg/mL / Nitric Oxide Percentage Scavenging Activity at 100 µg/mL: mean ± SD of three parallel measurements; for IC50 (nitric oxide scavenging): NO scavenging
urease = urease (Canavalia ensiformis, UniProt P07374); assay: biochemical; format: biochemical; details: for inhibition at 25 µg/mL: read-out: Percentage inhibition at 25 µg/mL; for inhibition at 50 µg/mL: read-out: Percentage inhibition at 50 µg/mL
Sequence of urease (P07374 whole entry, looked up): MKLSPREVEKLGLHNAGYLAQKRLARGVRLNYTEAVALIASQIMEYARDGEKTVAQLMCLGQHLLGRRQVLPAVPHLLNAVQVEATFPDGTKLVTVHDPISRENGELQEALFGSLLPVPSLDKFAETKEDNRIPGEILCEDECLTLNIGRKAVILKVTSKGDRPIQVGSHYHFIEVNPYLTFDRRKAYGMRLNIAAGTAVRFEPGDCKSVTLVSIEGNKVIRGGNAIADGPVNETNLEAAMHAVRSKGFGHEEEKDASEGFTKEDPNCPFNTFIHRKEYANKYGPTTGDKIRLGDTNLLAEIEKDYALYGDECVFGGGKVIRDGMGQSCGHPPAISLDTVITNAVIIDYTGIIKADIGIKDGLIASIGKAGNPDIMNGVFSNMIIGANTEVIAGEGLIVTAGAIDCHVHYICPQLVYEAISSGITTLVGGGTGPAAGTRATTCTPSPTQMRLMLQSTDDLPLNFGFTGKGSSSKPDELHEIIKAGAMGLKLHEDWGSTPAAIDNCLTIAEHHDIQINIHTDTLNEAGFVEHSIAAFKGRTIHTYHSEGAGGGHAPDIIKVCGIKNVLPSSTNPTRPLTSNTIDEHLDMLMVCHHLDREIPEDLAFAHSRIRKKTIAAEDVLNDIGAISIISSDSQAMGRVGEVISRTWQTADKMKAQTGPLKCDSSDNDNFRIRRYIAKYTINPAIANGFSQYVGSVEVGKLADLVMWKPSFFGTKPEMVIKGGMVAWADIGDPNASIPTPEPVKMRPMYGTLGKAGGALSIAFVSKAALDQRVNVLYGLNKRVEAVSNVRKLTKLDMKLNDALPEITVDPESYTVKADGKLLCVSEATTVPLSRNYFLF
Method: The newly synthesized compounds 3a–e were examined for their urease inhibition activities in vitro at 25 and 50 μg/mL concentrations. […] Thus, enzyme stops catalyzing hydrolysis and the activity of the enzyme is inhibited.
The urease inhibitory activity of the synthesized compounds 2, 3a–e, 4 was determined as follows: phosphate buffer (pH 7, 200 µL) containing 1 unit of enzyme was mixed with phosphate buffer (230 µL) and of a particular stock solution (20 µL, thiourea or the test compound). The reaction mixture was incubated at 25 °C for 5 min. After the incubation period urea stock solution (400 µL, 20 mM) was added. Calibration mixture was prepared with no urea solution. All test tubes were further incubated at 40 °C for the action of urease for 10 min. This was followed by the addition of phenol hypochlorite reagent (1150 µL). Tubes were again incubated at 56 °C for 25 min. […] The IC50 values were determined using the EZ-fit kinetic data base.

Compound | Nitric Oxide Percentage Scavenging Activity at 25 µg/mL [1] [%] | Nitric Oxide Percentage Scavenging Activity at 50 µg/mL [1] | IC50 (nitric oxide scavenging) [1] [µg/mL] | melting point [°C] | IC50 (urease) [µM] | inhibition at 25 µg/mL (urease) [%] | inhibition at 50 µg/mL (urease) [%] | Nitric Oxide Percentage Scavenging Activity at 100 µg/mL [1] | IC50 (urease inhibition) (urease; urease, EZ-fit) [µg/mL]
COc1ccc(-c2ccc3nc(N)sc3c2)cc1 [Compound 3c, 6-(4-Methoxyphenyl)benzo[d]thiazole-2-amine] | 31 ± 0.022 | 67 ± 0.002% | 38.19 (≈ 149 µM) | 165 to 167 | 111 | 44 ± 0.005 | 86.24 ± 0.001 |  | 
Nc1nc2ccc(Br)cc2s1 [Compound 2, 6-Bromobenzo[d]thiazole-2-amine] | 20 ± 0.004 | 48 ± 0.0007% | 57.8 (≈ 252 µM) |  | 124 | 43 ± 0.0034 | 95 ± 0.005 | 90 ± 0.007% and 90 ± 0.0007% | 
Nc1nc2ccc(-c3cc(C(F)(F)F)cc(C(F)(F)F)c3)cc2s1 [Compound 3d, 6-(3,5-bis(Triflouromethyl)phenyl)benzo[d]thiazole-2-amine] | 10 ± 0.01 | 23 ± 0.009% | 83.75 (≈ 231 µM) | 180 to 182 | 79.7 | 43 ± 0.007 | 88.6 ± 0.002 | 63 ± 0.009% | 
Nc1nc2ccc(-c3ccc(Cl)cc3)cc2s1 [Compound 3b, 6-(4-Chlorophenyl)benzo[d]thiazole-2-amine] | 17 ± 0.006 | 34 ± 0.005% | 75 (≈ 288 µM) | 194 to 196 | 117 | 39 ± 0.0012 | 88.19 ± 0.007 | 66 ± 0.005% | 
CC(=O)Nc1nc2ccc(Br)cc2s1 [Compound 4, N-(6-Bromobenzo[d]thiazol-2-yl)acetamide] |  |  |  |  | 112 | 39 ± 0.001 | 89 ± 0.009 |  | 
Cc1ccc(-c2ccc3nc(N)sc3c2)cc1 [Compound 3a, 6-p-Tolylbenzo[d]thiazole-2-amine] | 24 ± 0.003 | 67 ± 0.009% and 56 ± 0.001% | 38.19 (≈ 159 µM) | 184 to 186 | 113 | 46 ± 0.005 | 90.49 ± 0.002 | 95 ± 0.001% | 
Nc1nc2ccc(-c3ccccc3)cc2s1 [Compound 3e, 6-Phenylbenzo[d]thiazole-2-amine] | 9 ± 0.007 | 22 ± 0.001% | 96.66 (≈ 427 µM) |  | 116 | 48 ± 0.005 | 85 ± 0.002 | 52 ± 0.001% | 
NC(N)=S [Thiourea, reference compound] |  |  |  |  |  |  |  |  | 34.65 (≈ 455 µM)
O=C1O[C@H]([C@@H](O)CO)C(O)=C1O [Ascorbic acid, reference compound] | 40.5 ± 0.01 | 70.50 ± 0.91% |  |  |  |  |  | 99.5 ± 0.91% | 
